Experiments:
[1] = test system: RA sensitive reporter construct pCYP26A1-luc in MCF-7 cells; assay: Retinoid activity assay, RA sensitive pCYP26A1-luc reporter in MCF-7 cells; type: cell-based; settings: 24 hours, firefly relative to Renilla luciferase
Source text: This retinoid activity assay measures the ability of test compounds to induce expression of a transiently transfected RA sensitive reporter construct. In this assay, MCF-7 cells are transfected with a construct comprising an upstream promoter of the CYP26A1 gene containing 2 RA response elements driving expression of firefly luciferase (pCYP26A1-luc). Since CYP26A1 is highly inducible by RA in these cells, this construct serves as a sensitive reporter of retinoid-like transcriptional activity.
MCF-7 cells were maintained in RPMI-1640 medium containing 10% FBS. Exponentially growing cells were harvested by incubation in trypsin. Cells were then collected and plated in 24-well plates at 50,000 cells/well. Once cells reached 80-90% confluence (e.g., the next day), cells were transfected with two plasmids. The first plasmid was CYP26A1-luc construct (375 ng). The second plasmid was a control plasmid comprising the Renilla luciferase gene driven by constitutive thymidine kinase promoter (pRL-tk) (25 ng). Transfection was performed using FuGene 6 transfection reagent (Promega) with a 1:3 ratio of DNA:FuGene. 24 hours after transfection, cells were treated with test compounds diluted in DMSO in triplicate at 0.1, 1 and 10 μM final concentrations. As a positive control for reporter activation, cells were also treated with RA diluted in DMSO at the same concentrations listed above. DMSO treatment alone served as a negative control. After 24 hours of treatment, cells were harvested in passive lysis buffer (Promega) and luciferase activity in cell lysates were read using a luminometer. Data are expressed as the activity of firefly luciferase relative to Renilla luciferase (see Table 3). For CYP26A1 inhibitor compounds, no activation of the reporter was detected, while the related retinoid-like compound induces luciferase expression.

CYP26B1 = CYP26B1 (Homo sapiens (Human), UniProt Q9NR63); assay: Cell-based inhibitor assay, [H]-RA metabolism in CYP26B1 stably transfected HeLa cells; settings: for IC50: CYP26B1 transfected HeLa cells, 3 hours at 37° C., inhibition of all trans-RA metabolism, read-out: IC50 26B1
Sequence of CYP26B1 (Q9NR63 whole entry, species assumed): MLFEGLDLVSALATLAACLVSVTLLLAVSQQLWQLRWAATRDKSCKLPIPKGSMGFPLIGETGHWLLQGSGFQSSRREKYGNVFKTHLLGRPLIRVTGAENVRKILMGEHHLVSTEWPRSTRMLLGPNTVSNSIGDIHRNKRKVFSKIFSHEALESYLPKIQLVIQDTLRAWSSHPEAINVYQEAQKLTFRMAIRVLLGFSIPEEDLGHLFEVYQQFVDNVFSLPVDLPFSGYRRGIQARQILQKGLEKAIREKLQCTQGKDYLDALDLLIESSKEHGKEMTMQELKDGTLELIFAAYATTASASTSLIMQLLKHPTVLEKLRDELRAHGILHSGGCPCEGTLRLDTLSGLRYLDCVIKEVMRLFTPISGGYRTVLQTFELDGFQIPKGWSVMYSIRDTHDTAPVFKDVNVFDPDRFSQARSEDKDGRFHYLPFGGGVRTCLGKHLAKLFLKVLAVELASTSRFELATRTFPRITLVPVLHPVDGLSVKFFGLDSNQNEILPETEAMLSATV
Experimental: (§1) CYP26A1 or CYP26B1 stably transfected HeLa cells were maintained in Minimum Essential Medium (MEM) containing 10% fetal bovine serum (FBS) and 100 μg/mL hygromycin. Exponentially growing cells were harvested by incubation in trypsin. Cells were then collected and re-plated in 48-well culture plates at 5×10^5 cells in 0.2 mL of culture medium containing 0.05 μCi [H]-RA in the presence or absence of increasing concentrations of a test compound. The test compounds were diluted in dimethyl sulfoxide (DMSO) and then added in duplicate to wells at 0.01, 0.1, 1, 10 and 100 μM final concentration. […] Cells were incubated for 3 hours at 37° C. Retinoids were then extracted using the procedure of Bligh, et al., (1959), Canadian Journal of Biochemistry 37, 911-917, which was modified by using dichloromethane instead of chloroform. Each sample's water soluble radioactivity level was quantified using a β-scintillation counter (using Ecolume scintillation fluid, available from MP Biomedicals of Solon, Ohio, USA).

[2] = test system: CYP26A1 expression in MCF-7 cells; assay: Enhancement of RA activity assay, qPCR of CYP26A1 in MCF-7 cells treated with RA plus compound; type: cell-based; settings: 1 μM RA + 1 μM compound, 24, 48, 72 hours
Experimental: An RA activity assay was used to measure the ability of compounds that inhibit CYP26A1 to enhance activity of RA, for example, by limiting its catabolism. This assay measured expression of endogenous RA target genes in MCF-7 cells that have been treated with RA and a compound of interest. A compound that inhibits CYP26 activity will have the effect of prolonging the induction of RA target genes in response to RA.
Exponentially growing MCF-7 cells were treated with trypsin, collected and plated into 6-well culture dishes at 300,000 cells per well. […] RA was also added at a final concentration of 1 μM. RNA was harvested using Trizol reagent after 24, 48, and 72 hours of treatment. cDNA was synthesized from 2 μg of total RNA using Superscript III cDNA synthesis kit with random priming (available from Life Technologies, Burlington, ON, Canada). Analysis of expression of the RA inducible CYP26A1 gene was quantified by qPCR normalized against expression of PMM2 with Sybr Select Master Mix (Life Technologies) and gene specific primers in a two-step thermal cycling reaction. Data is provided for a CYP26A1 selective inhibitor, which enhances the induction of CYP26A1.

CYP26A1 = CYP26A1 (Homo sapiens (Human), UniProt O43174); assay: Cell-based inhibitor assay, [H]-RA metabolism in CYP26A1 stably transfected HeLa cells; settings: for IC50: CYP26A1 transfected HeLa cells, 3 hours at 37° C., inhibition of all trans-RA metabolism, read-out: IC50 26A1
Sequence of CYP26A1 (O43174 whole entry, species assumed): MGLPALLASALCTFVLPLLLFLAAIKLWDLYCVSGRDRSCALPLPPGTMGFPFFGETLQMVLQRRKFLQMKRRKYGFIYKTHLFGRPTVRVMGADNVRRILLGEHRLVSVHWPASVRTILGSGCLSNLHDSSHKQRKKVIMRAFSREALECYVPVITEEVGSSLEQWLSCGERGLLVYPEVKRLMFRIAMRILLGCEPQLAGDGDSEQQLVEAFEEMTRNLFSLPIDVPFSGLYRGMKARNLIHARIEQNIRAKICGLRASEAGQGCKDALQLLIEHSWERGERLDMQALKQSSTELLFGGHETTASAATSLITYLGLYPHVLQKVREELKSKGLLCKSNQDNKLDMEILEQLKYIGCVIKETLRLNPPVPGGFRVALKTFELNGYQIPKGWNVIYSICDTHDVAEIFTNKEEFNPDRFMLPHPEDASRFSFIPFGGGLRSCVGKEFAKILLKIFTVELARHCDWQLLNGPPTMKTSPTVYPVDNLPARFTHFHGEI
Experimental: as §1

[3] = test system: CYP26A1 expression in MCF-7 cells; assay: qPCR of endogenous RA target gene CYP26A1 in MCF-7 cells, compound alone; type: cell-based; settings: 1 μM
Experimental: Additionally, for some compounds of particular interest, a second assay is performed to measure expression of endogenous RA target genes after treatment with test compounds in MCF-7 cells. Exponentially growing MCF-7 cells were treated with trypsin, collected and plated into 6-well culture dishes at 300,000 cells per well. Once cells reached confluency, they were treated with test compounds diluted in DMSO to a final concentration of 1 μM. As a positive control, cells were also treated with RA at 1 μM final concentration. After 24 hours of treatment, RNA was harvested using TRI reagent (available from Sigma-Aldrich, Oakville, Canada). cDNA was synthesized from 2 μg of total RNA using Superscript III cDNA synthesis kit with random priming (kit available from Life Technologies, Burlington, ON, Canada). Analysis of expression of a RA inducible CYP26A1 gene was quantified by qPCR normalized against expression of PMM2 with Sybr Select Master Mix (Life Technologies) and gene specific primers in a two-step thermal cycling reaction. Data is shown in Table 2 for select compounds of interest. […] See FIGS. 1 and 2 for graphs of retinoid activity.

Row | IC50 (CYP26B1) [µM] | IC50 (CYP26A1) [µM] | SMILES | Luciferase Activity RLU Avg ([1]; 0.1 μM) [RLU] | Luciferase Activity RLU Avg ([1]; 1 μM) [RLU] | Luciferase Activity RLU Avg ([1]; 10 μM) [RLU] | inhibition of CYP26B1 enzyme (in words) (CYP26B1) | enhancement of RA signaling, induction of CYP26A1 expression (in words) [2] | enhancement of RA signaling, induction of CYP26A1 expression (in words) ([2]; listed as GGP12) | inhibitory activity towards CYP26A1 (in words) (CYP26A1) | inhibition of CYP26A1-mediated RA metabolism compared with ketoconazole (in words) (CYP26A1; see IC50 values in Table 2) | expression of RA target genes, compound given alone (in words) [3] | retinoid-like activity (in words) ([3]; FIG. 8)
1 | > 1000 | 0.1 | Cc1cc2c(cc1S(=O)(=O)Nc1ccc(C(C)(C)C(=O)O)cc1)C(C)(C)CCC2(C)C [Cmpd 12] | 0.067 | 0.082 | 0.041 | None of the above compounds inhibited the CYP26B1 enzyme | greatly enhance RA signaling | enhancement of RA signaling | selective inhibitory activity towards CYP26A1 | comparable to or better than ketoconazole |  | 
2 | > 100 | > 1000 | CC1(C)CCC(C)(C)c2cc(S(=O)(=O)Nc3ccc(C(=O)O)cc3)ccc21 [Cmpd 15] | 0.129 | 0.212 | 0.816 | does not exhibit any inhibitory activity |  |  | does not exhibit any inhibitory activity |  | induces expression of the RA target gene CYP26A1 | does exhibit retinoid-like activity
